# Where two headings read alike, the source gives them in different places.
# Experiments:
# [1] = rat; cited from earlier work
# LoVo = experiment: MTT cytotoxicity, human colon adenocarcinoma LoVo; assay type: cell-based; details: read-out: IC50 LoVo (concentration causing 50% inhibition of tumor cells growth)
# Method: (§1) The evaluation of the biological activity for the compounds of this invention was performed "in vitro" and "in vivo" following the protocols developed by the U.S. National Cancer Institute.
# (§2) The evaluation of the "in vitro" cytotoxic activity of the compounds of the invention was performed using the following cell lines: a murine sarcoma (S-180) and its subline expressing multidrug resistance (S-180/A-10), a leukemia (L1210), a human colon adenocarcinoma cell line (LoVo) isolated from a metastatic nodule and its subline expressing multidrug resistance. This latter subline is resistant to a number of antitumor agents, among which are doxorubicin, VP-16 and vincristine.
# (§3) The columns headed L1210, S180 LoVo and LoVo/Dx contain the IC50 values against said tumor cell lines, as above described.
# (§4) CYTOTOXICITY ON LOVO AND LOVO/DX WAS DETERMINED BY MTT ASSAY FOLLOWING 1
# [2] = W.H.O. grade; phase I and phase II clinical trials; cited from earlier work
# [3] = humans; cited from earlier work
# LoVo/Dx [4] = experiment: MTT cytotoxicity, multidrug-resistant subline LoVo/DX; assay type: cell-based, human; details: for IC50: Homo sapiens, read-out: IC50 LoVo/Dx (concentration causing 50% inhibition of tumor cells growth)
# Method: as §1, §2
# The columns headed L1210, S180 LoVo and LoVo/Dx contain the IC50 values against said tumor cell lines, as above described. […]
# as §4
# S180 = experiment: MTT cytotoxicity, murine sarcoma S-180; assay type: cell-based; details: Mus musculus; murine sarcoma S-180, MTT assay; read-out: IC50 S180 (concentration causing 50% inhibition of tumor cells growth)
# Method: as §1, §2, §3
# L1210 = experiment: MTT cytotoxicity, leukemia L1210; assay type: cell-based; details: Mus musculus, MTT assay, read-out: IC50 L1210 (concentration causing 50% inhibition of tumor cells growth)
# Method: as §1, §2, §3
# LoVo/Dx [5] = details: in words; cited from earlier work
# [6] = system: cell histotypes developing resistance against doxorubicin mediated by overexpression of glycoprotein P; details: MDR; cited from earlier work
# [7] = in vivo; cited from earlier work
# [8] = cited from earlier work
# [9] = i.p., non-tumor bearing rats, equieffective antitumor dosages; cited from earlier work
# [10] = system: advanced breast cancer, acute leukemia and lymphoma; details: cited from earlier work
# [11] = MTT assay, following 1 hour of drug exposure
# [12] = LoVo/Dx multidrug-resistant subline, MTT assay, following 1 hour of drug exposure
# [13] = in animals, versus mitoxantrone
Compound,IC50 (S180),IC50 (L1210),IC50 (LoVo; [11]),IC50 (LoVo/Dx [4]; [12]),also measured
O=C1c2c(O)cccc2-c2nn(CCNCCO)c3ccc(NCCNCCO)c1c23 [CI-941],,,,,"nephrotoxicity [1]: marked nephrotoxicity; IC50 (LoVo; 1 h): 0.053 µg/mL; leukopenia (dose limiting) [2]: grade 3 and 4; neutropenia (dose limiting) [2]: grade 4; cardiotoxicity [3]: irreversible cardiotoxicity; symptoms of cardiac failure or acute cardiac events [3]: no symptoms of cardiac failure or acute cardiac events; IC50 (LoVo/Dx [4]; LoVo/DX, 1 h): 44.5 µg/mL; activity in the resistant cell line (LoVo/Dx [4]; LoVo/DX, in words): loses completely its activity"
CN(C)CCn1nc2c3c(c([N+](=O)[O-])ccc31)Sc1ncccc1-2 [Example 1],0.17 µg/mL,0.08 µg/mL,,,
"CN(C)CCn1nc2c3c(c([N+](=O)[O-])ccc31)Sc1cnccc1-2 [Example 3, N,N-dimethyl-5-nitro-2H-pyrido[4',3':5,6]thiopyrano[4,3,2-cd]indazole-2-ethanamine]",0.14 µg/mL,0.05 µg/mL,,,
"CN(C)CCn1nc2c3c(c([N+](=O)[O-])ccc31)Sc1ccncc1-2 [Example 4, N,N-dimethyl-5-nitro-2H-pyrido[3',4':5,6]thiopyranol[4,3,2cd]indazole-2-ethanamine]",0.0032 µg/mL,0.00062 µg/mL,,,
"CN(C)CCn1nc2c3c(c(N)ccc31)Sc1ccncc1-2 [Example 5, N,N-dimethyl-5-amino-2H-pyrido[3',4':5,6]thiopyrano[4,3,2-cd]indazole-2-ethanamine]",0.0066 µg/mL,0.003 µg/mL,0.016 µg/mL,0.027 µg/mL,
"CN(C)CCNc1ccc2c3c(nn2CCN(C)C)-c2cccnc2Sc13 [Example 6, N'-[2-[2-(dimethylamino)ethyl]-2H-pyrido[3',2':5,6]thiopyrano[4,3,2-cd]indazol-5-yl]--N,N-dimethyl-1,2-ethanediamine]",0.028 µg/mL,0.008 µg/mL,2.4 µg/mL,2.6 µg/mL,
"CN(C)CCn1nc2c3c(c(NCCN)ccc31)Sc1ncccc1-2 [Example 7, N'-[2-[2-(dimethylamino)lethyl]-2H-pyrido[3',2':5,6]thiopyrano[4,3,2-cd]indazol-5-yl]l-1,2-ethanediamine]",0.058 µg/mL,0.0125 µg/mL,0.027 µg/mL,16.8 µg/mL,
CN(C)CCn1nc2c3c(c(NCCN)ccc31)Sc1ccncc1-2 [Example 8],0.0029 µg/mL,0.0016 µg/mL,0.008 µg/mL,0.26 µg/mL,
COc1cc(C2c3cc4c(cc3C(OC3OC5COC(C)OC5C(O)C3O)C3COC(=O)C23)OCO4)cc(OC)c1O (stereo not shown) [VP-16],,,,,resistance of the LoVo/DX subline (LoVo/Dx [5]): resistant
"O=C1c2ccccc2C(=O)c2c(NCCNCCO)ccc(NCCNCCO)c21 [ametantrone, 1,4-bis[(2-(2-hydroxyethylamino)ethyl)amino]anthracene-9,10-dione]",,,,,"cross-resistance to doxorubicin-resistant cell histotypes [6]: cross-resistance; myelodepressive toxicity [7]: remarkable myelodepressive toxicity; cardiotoxicity relative to mitoxantrone [8, 13]: about 10 -fold less; potency relative to mitoxantrone [8, 13]: about 10 -fold less"
"COc1cccc2c1C(=O)c1c(O)c3c(c(O)c1C2=O)C[C@@](O)(C(=O)CO)C[C@@H]3O[C@H]1C[C@H](N)[C@H](O)[C@H](C)O1 [doxorubicin, reference compound]",,,,,"accumulation of doxorubicin in LoVo/DX (LoVo/Dx [5]): reduced accumulation; resistance of the LoVo/DX subline (LoVo/Dx [5]): resistant; IC50 (LoVo; 1 h): 0.58 µg/mL; IC50 (LoVo/Dx [4]; LoVo/DX, 1 h): 53.8 µg/mL"
"CN(C)CCn1nc2c3c(c(NCCN)ccc31)Sc1cnccc1-2 [ex.9-cpd 30, N'-[2-[2-(dimethylamino)ethyl]-2H-pyrido[4',3':5,6]thiopyrano[4,3,2-cd]indazol-5-yl]-1,2-ethanediamine]",0.058 µg/mL,0.014 µg/mL,,,
"CN(C)CCn1nc2c3c(c(NC(=O)CN)ccc31)Sc1ncccc1-2 [ex. 10-cpd 1, N'-[2-(2-dimethylamino)ethyl]-5-(2'-amino-acetylamino)-2H-pyrido[3',2':5,6]thiopyrano [4,3,2-cd]indazole]",0.22 µg/mL,0.03 µg/mL,,,
"CN(C)CCn1nc2c3c(c(NC(=O)CN)ccc31)Sc1ccncc1-2 [ex. 10-cpd 2, N'-[2-(2-dimethylamino)ethyl]-5-(2'-amino-acetylamino)-2H-pyrido[3',4':5,6]thiopyrano [4,3,2-cd]indazole]",,,0.04 µg/mL,0.21 µg/mL,
"CCN(CC)CCn1nc2c3c(c([N+](=O)[O-])ccc31)Sc1ccncc1-2 [ex. 11-cpd 1, N,N-diethyl-5-nitro-2 H-pyrido[3',4': 5,6]thiopyrano[4,3,2-cd]indazole-2-ethanamine]",0.0031 µg/mL,0.00061 µg/mL,,,
"CCN(CC)CCn1nc2c3c(c([N+](=O)[O-])ccc31)Sc1ncccc1-2 [ex. 11-cpd 2, N,N-diethyl-5-nitro-2H-pyrido[3',2':5,6]thiopyrano[4,3,2-cd]indazole-2-ethanamine]",0.22 µg/mL,0.2 µg/mL,,,
"CCN(CC)CCn1nc2c3c(c(N)ccc31)Sc1ccncc1-2 [ex. 12-cpd 1, N,N-diethyl-5-amino-2H-pyrido[3',4':5,6]thiopyrano[4,3,2-cd]indazole-2-ethanamine]",0.0031 µg/mL,0.0015 µg/mL,0.036 µg/mL,0.094 µg/mL,
"O=C1c2c(O)ccc(O)c2C(=O)c2c(NCCNCCO)ccc(NCCNCCO)c21 [mitoxantrone, 5,8-dihydroxy-1,4-bis[(2-(2-hydroxyethylamino)ethyl)amino]anthracene-9,10-dione]",,,,,"delayed toxicity [9]: a delayed toxicity is observed only with mitoxantrone; IC50 (LoVo; 1 h): 0.024 µg/mL; myelodepressive toxicity [7]: remarkable myelodepressive toxicity; cardiotoxicity in comparison to doxorubicin ([8]; animal studies): diminished cardiotoxicity in comparison to doxorubicin; IC50 (LoVo/Dx [4]; LoVo/DX, 1 h): 0.67 µg/mL; clinical activity ([10]; clinical trials, advanced breast cancer, acute leukemia and lymphoma): particularly promising activity; clinical cardiotoxicity ([10]; mostly in patients previously treated with doxorubicin): some clinical cardiotoxicity has been observed"
CC[C@]1(O)C[C@H]2CN(CCc3c([nH]c4ccccc34)[C@@](C(=O)OC)(c3cc4c(cc3OC)N(C=O)[C@H]3[C@@](O)(C(=O)OC)[C@H](OC(C)=O)[C@]5(CC)C=CCN6CC[C@]43[C@@H]65)C2)C1 [vincristine],,,,,resistance of the LoVo/DX subline (LoVo/Dx [5]): resistant

# Reference: patent US5935969A, “Pyrido-thiopyrandoinazoles with antitumor activity” (University of Vermont, priority 1998, dated 1999)
